In patent publication US20230202982A1, “5-CHLORO-4-HYDROXY-1-METHYL-2-OXO-N-PHENYL-QUINOLINE-3-CARBOXAMIDE POTASSIUM SALT FOR TREATING INFLAMMATORY BOWEL DISEASES” (Aqilion AB, priority 2020, published 2023):

Legend:
[1] = Slurry in water for 48 hours, re-examined by XRPD (disproportionation); format: physicochemical; details: slurry in water 20 mg / 400 uL, ambient temperature, potassium salt
Procedure: When a sample of Example compound 1 was stored in a slurry in water at 20 mg / 400uL for 48 hours at ambient temperature, recovered, dried by evaporation and re-examined by XRPD, there was no change in the X-ray diffractogram.

[2] = Hygroscopicity by Dynamic Vapour Sorption (DVS); format: physicochemical; details: 25° C.; for Hygroscopicity: DVS, 0 to 90% RH, potassium salt
Procedure: Dynamic Vapour Sorption (DVS) analysis was carried out on a sample of Example compound 1.
Approximately 20 mg of sample was placed into a wire-mesh vapour sorption balance pan and loaded into an ‘IgaSorp’ vapour sorption balance (Hiden Analytical Instruments). The sample was then dried by maintaining a 0% humidity environment until no further weight change was recorded.
The sample was then subjected to a step profile from 0 to 90% RH at 10% RH increments. The desorption isotherm was from 90% RH o 0% RH in 10% RH steps. The weight change during the sorption/desorption cycles were then monitored, allowing for the hygroscopic nature of the sample to be determined. Analysis was performed using the following parameters: • Analysis Mode F1 • Wait Time 99% • Sample Temperature 25° C. • Min Time Out 30 Mins • MaxTime Out 180 Mins • Gas Flow Rate 250 ml/min

[3] = test system: CD4+ adoptive transfer induced inflammatory bowel disease; experiment: CD4+ adoptive transfer induced inflammatory bowel disease in mice; format: in vivo
Procedure: The efficacy of the 5-chloro-4-hydroxy-1-methyl-2-oxo-N-phenyl-quinoline-3-carboxamide potassium salt in inhibiting inflammation/edema associated with inflammatory bowel disease was evaluated in a CD4+ adoptive transfer induced inflammatory bowel disease in mice.
On study day -1, SCID mice were weighed and evenly distributed into treatment groups based on body weight.
On study day 0, Balb/C mice were terminated, and spleens obtained for CD4^+CD45RB^high cell isolation (Using SCID IBD Cell Separation Protocol). After cells were sorted and obtained, each animal in the treatment groups received an IP injection of CD4^+CD45RB^high cells at a minimum 4x10^5 cells (200 µl/mouse injections). A naive group of mice was followed through the experiment without receiving the injection of cells. The naive group comprised 5 animals.
On study day 21, treatment with 5-chloro-4-hydroxy-1-methyl-2-oxo-N-phenylquinoline-3-carboxamide potassium salt (1 mg/kg, daily day 21 to 49) was initiated. The compound was formulated as a 0.1 mg/mL suspension with sodium carboxymethyl cellulose (1%, w/v). Mice received either the 5-chloro-4-hydroxy-1-methyl-2-oxo-N-phenyl-quinoline-3-carboxamide potassium salt (Example compound 1) or vehicle. Each of those groups comprised 10 animals.
On study day 49, animals were anesthetized with Isoflurane and bled to exsanguination followed by cervical dislocation. The entire colon was removed, measured, and weighed. The colon was analysed for its level of interferon-γ and IL-22. The inflammation in the colons was also scored by visual and histopathological assessments.

[4] = listed as 5-chloro-4-hydroxy-1-methyl-2-oxo-N-phenylquinoline-3-carboxamide potassium salt

## Cn1c(=O)c(C(=O)Nc2ccccc2)c([O-])c2c(Cl)cccc21.[K+] [Example compound 1, 5-chloro-4-hydroxy-1-methyl-2-oxo-N-phenyl-quinoline-3-carboxamide potassium salt]
[1]; [4]
  Stability in water slurry: change in X-ray diffractogram: stable when in a slurry
[1]
  Stability in water slurry: change in X-ray diffractogram: no change
[2]; [4]
  Hygroscopicity: not hygroscopic
[2]
  Hygroscopicity: non-hygroscopic
[2]; analysed to 80% RH
  Reversible weight gain (DVS): less than 0.2%
[3]; 1 mg/kg daily day 21 to 49, SCID mice, vs vehicle, FIG. 4
  Body weight change: less weight loss
[3]; 1 mg/kg daily day 21 to 49, day 49, vs vehicle, FIG. 5
  Colon level of inflammatory markers (interferon-γ and IL-22): lower levels of inflammatory markers
[3]; 1 mg/kg daily day 21 to 49, day 49, vs vehicle, FIG. 6
  Colon inflammation scores (visual and histopathological): fewer signs of inflammation
[3]; CD4+ adoptive transfer model in mice, summary statement
  Inhibition of inflammation/edema associated with inflammatory bowel disease: effective in inhibiting inflammation/edema
